One experiment concerns the target β-adrenergic receptors. As to the kind of experiment: 3H-Dihydroalprenolol binding in hippocampal membranes. On the set-up: species or system mouse.
The target in another experiment is T1, NA transporter (Mus musculus, UniProt O55192).
T1 construct: the tissue from four animals was pooled, homogenized in incubation buffer; from tissue; host or cells: mouse hippocampus membranes (P2rx7+/+ and P2rx7-/- littermates, C57BL/6 background)
The experiment can be described thus: 3H-Nisoxetine binding in hippocampal membranes. As for the experimental part:
Male mice (80–85 days old) were decapitated, and the hippocampus was dissected, weighted, and frozen overnight at −70°C. The next day, the tissue from four animals was pooled, homogenized in incubation buffer using an Ultra-Turrax and centrifuged at 40 000×g for 15 minutes. The pellet was washed by repeated resuspension in buffer, followed by centrifugation. […] Eight ligand concentrations (0.1–4 nM) were used in three parallels. The incubation time was 1 hour at 25°C for citalopram, 2.5 hrs at 4°C for nisoxetine and 30 minutes at 25°C for dihydroalprenolol. The non-specific binding was determined in the presence of 1 µM paroxetine (citalopram), 10 µM desmethylimipramine (nisoxetine) and 1 µM (-) alprenolol (DHA). The membranes of P2rx7+/+ and P2rx7−/− mice were assayed in parallel. The binding was terminated using vacuum filtration on GF/B filters soaked in 0.05% polyethylenimine. The Kd and the number of binding sites (Bmax) were calculated using Prism3 software. The protein concentration (approx. 0.5 mg/ml) was measured according to Lowry method using CuEDTA.

Where [1] appears, read: hippocampal membranes of P2rx7+/+ mice.
The mark [2] stands for this setting: hippocampal membranes of P2rx7−/− mice.

T1 sequence (O55192 whole entry): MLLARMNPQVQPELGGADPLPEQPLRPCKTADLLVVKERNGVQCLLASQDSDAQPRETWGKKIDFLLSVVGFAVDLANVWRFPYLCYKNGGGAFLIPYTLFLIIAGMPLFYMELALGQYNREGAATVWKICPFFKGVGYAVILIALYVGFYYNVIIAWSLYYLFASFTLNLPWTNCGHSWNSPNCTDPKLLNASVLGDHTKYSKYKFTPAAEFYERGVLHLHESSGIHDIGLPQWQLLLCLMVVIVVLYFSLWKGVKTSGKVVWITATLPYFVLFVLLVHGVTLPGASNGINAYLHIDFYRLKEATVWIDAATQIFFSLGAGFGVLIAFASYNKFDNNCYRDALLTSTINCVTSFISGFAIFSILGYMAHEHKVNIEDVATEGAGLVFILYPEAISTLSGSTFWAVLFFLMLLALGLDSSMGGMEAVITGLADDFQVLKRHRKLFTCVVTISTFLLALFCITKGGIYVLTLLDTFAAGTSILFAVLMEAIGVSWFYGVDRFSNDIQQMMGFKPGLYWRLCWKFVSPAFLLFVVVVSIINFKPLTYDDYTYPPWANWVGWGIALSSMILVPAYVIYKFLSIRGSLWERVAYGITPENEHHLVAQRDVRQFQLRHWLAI
Procedure for β-adrenergic receptors: Male mice (80–85 days old) were decapitated, and the hippocampus was dissected, weighted, and frozen overnight at −70°C. The next day, the tissue from four animals was pooled, homogenized in incubation buffer using an Ultra-Turrax and centrifuged at 40 000×g for 15 minutes. The pellet was washed by repeated resuspension in buffer, followed by centrifugation. […] Eight ligand concentrations (0.1–4 nM) were used in three parallels. […] The membranes of P2rx7+/+ and P2rx7−/− mice were assayed in parallel. The binding was terminated using vacuum filtration on GF/B filters soaked in 0.05% polyethylenimine. The Kd and the number of binding sites (Bmax) were calculated using Prism3 software. The protein concentration (approx. 0.5 mg/ml) was measured according to Lowry method [50] using CuEDTA.

`CCCc1ccccc1OCC(O)CNC(C)C` (centres unmarked) [^3H-dihydroalprenolol]: the Kd on β-adrenergic receptors (setting [1]) is 0.5 ± 0.02 nM; at β-adrenergic receptors (setting [2]), 0.4 ± 0.02 nM.

`CNCCC(Oc1ccccc1OC)c1ccccc1` (centres unmarked) [^3H-nisoxetine] registered a Kd at NA transporter of 0.7 ± 0.05 nM. The Bmax stood at 126.8±4.9 fmol/mg protein at NA transporter (setting [1]) and 131.4±7.5 fmol/mg protein on NA transporter (setting [2]).

For the origin of these results see publication PMC3689833, “Neurochemical Changes in the Mouse Hippocampus Underlying the Antidepressant Effect of Genetic Deletion of P2X7 Receptors” (PLoS ONE, 2013).
